According to publication PMC4887995, “Small molecule dual-inhibitors of TRPV4 and TRPA1 for attenuation of inflammation and pain” (Scientific Reports, 2016):
“Also recorded” adds a separate entry of the source.

Tests used:
TRPV4 [1] = biological target: T1, TRPV4 (Rattus norvegicus, UniProt Q9ERZ8); settings: for inhibition of TRPV4-mediated Ca++ influx / average peak ∆Ca++ concentration: 5 μM inhibitor, GSK101 5 nM; for average peak ∆Ca++ concentration: ≈100 cells, vehicle control 1156; for increased potency over GSK205: from TRPV4 IC50 values
T1 sequence (Q9ERZ8 whole entry): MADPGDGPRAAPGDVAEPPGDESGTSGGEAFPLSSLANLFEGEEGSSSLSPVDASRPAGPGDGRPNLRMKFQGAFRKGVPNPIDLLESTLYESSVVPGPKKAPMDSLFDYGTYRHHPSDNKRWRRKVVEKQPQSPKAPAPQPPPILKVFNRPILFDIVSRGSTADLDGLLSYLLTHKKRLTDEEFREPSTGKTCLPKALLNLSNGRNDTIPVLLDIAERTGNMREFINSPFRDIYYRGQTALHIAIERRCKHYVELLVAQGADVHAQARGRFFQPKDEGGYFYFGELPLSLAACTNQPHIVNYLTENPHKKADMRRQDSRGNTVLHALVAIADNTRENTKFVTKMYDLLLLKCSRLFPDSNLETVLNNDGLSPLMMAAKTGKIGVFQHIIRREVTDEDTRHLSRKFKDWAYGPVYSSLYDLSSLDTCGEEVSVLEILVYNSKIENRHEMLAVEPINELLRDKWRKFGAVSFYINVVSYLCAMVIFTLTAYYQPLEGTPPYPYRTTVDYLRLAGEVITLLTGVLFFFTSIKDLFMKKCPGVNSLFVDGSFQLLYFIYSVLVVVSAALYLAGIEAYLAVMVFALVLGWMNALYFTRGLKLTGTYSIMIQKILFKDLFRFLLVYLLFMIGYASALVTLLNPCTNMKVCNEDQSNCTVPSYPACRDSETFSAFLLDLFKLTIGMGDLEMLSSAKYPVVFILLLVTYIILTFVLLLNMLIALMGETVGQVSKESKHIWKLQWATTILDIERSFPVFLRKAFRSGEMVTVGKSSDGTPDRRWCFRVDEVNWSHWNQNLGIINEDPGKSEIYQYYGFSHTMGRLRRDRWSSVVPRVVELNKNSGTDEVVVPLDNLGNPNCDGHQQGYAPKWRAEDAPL
Description: We assessed TRPV4-inhibitory potency of these synthetic compounds in a Ca^++ imaging assay in neuronal 2a (N2a) permanent tissue culture cells with directed expression of mammalian (rat) TRPV4. […] For first round assessment, all TRPV4-inhibitory compounds were used at 5 μM (Fig. 2A).
(A) Ca^++ imaging screening of all compounds in N2A cells with directed expression of TRPV4 (rat). […] The number on each bar corresponds to average peak ∆Ca^++ concentrations in ≈100 cells. Inset: micrographs of pseudo-colored cells before and after activation with 5nM GSK101, in addition note the corresponding time course of the averaged Ca^++ signal (fura-2 Ca^++ imaging). […] Plot generated from averaged peak ∆Ca^++ concentration of ≥75 cells per data-point.
TRPV4-eGFP from rat was used, previously found to respond to stimulation with GSK101 and hypotonicity in similar manner as native, non-fused TRPV4.

TRPV3 = biological target: T2, TRPV3 (Mus musculus, UniProt Q8K424); assay: Ca++ imaging in N2a cells over-expressing TRPV3 (camphor); settings: 5 μM
T2 sequence (Q8K424 1-791): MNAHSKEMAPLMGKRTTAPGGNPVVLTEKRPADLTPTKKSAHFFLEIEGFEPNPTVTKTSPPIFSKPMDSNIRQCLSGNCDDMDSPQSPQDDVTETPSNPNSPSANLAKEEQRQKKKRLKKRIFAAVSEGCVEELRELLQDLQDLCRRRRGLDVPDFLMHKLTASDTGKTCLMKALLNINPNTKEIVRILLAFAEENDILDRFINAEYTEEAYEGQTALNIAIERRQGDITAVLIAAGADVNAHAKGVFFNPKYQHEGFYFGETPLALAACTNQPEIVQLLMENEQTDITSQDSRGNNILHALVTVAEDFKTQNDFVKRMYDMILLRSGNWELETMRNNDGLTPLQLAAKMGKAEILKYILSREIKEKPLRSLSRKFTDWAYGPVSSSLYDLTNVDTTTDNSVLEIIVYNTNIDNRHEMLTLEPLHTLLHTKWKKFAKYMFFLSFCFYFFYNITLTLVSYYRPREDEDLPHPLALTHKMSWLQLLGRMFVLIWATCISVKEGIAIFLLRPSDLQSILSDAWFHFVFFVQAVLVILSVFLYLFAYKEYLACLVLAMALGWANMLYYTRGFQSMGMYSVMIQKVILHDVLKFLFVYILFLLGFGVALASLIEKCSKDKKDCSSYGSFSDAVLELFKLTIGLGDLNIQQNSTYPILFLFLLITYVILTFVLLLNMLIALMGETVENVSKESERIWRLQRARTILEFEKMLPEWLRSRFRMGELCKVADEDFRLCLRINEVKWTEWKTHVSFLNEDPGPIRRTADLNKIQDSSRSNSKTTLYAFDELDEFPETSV
Description: (A) Specificity vs TRPV1-3. […] Mean±SEM is shown, ≥100 cells per condition. […] Plot generated from averaged peak ∆Ca^++ concentration of ≥75 cells per data-point.
N2a cells were used for directed expression of TRP ion channels as described previously[13]. […] All other channels were native channels from mouse, eGFP was co-transfected. […] Ca^++ imaging was performed as described previously[13][14][34].

[2] = Stability of compound in plasma; assay type: in vitro ADME; settings: 4 h incubation in plasma at 37 °C
TRPV4 [3] = biological target: T3, TRPV4 (Sus scrofa, UniProt B3VP30); assay: Ca++ imaging in primary articular chondrocytes, GSK101 stimulation; assay type: cell-based, pig; settings: GSK101 5 nM
T3 construct: primary cells, which express functional and biologically-relevant TRPV4 without directed over-expression of the channel; endogenous in cells; host or cells: primary porcine articular chondrocytes (femoral condyles)
T3 sequence (B3VP30 1-871): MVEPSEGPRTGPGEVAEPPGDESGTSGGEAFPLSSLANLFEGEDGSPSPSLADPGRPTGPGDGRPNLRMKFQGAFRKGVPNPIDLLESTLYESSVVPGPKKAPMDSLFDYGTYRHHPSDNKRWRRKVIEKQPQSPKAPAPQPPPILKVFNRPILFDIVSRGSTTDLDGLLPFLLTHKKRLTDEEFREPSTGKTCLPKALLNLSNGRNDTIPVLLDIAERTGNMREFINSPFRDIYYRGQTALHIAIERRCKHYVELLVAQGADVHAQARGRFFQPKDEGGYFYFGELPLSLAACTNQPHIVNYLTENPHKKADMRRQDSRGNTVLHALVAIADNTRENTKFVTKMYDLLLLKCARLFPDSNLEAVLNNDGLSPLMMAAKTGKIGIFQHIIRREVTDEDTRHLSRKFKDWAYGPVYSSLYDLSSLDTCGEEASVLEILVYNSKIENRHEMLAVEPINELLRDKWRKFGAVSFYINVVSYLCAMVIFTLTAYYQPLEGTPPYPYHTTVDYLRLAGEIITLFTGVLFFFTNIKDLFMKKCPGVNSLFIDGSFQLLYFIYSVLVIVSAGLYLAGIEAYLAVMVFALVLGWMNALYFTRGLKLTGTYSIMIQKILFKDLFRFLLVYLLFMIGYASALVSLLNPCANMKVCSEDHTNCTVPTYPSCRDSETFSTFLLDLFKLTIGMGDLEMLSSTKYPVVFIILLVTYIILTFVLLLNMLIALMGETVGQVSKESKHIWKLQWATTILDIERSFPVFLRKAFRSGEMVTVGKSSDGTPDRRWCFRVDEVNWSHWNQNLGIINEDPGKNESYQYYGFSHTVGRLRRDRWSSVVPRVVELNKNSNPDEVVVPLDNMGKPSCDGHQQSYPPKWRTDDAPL
Description: (§1) Figure 4 Compound 16-8 inhibits TRPV4 in I˚ cells more potently than GSK205. […] Inset: Chondrocytes responding to activation with GSK101, fura-2 Ca^++ imaging; right-hand image taken at 5 sec after GSK101 application. […] (B) I˚ astrocytes (rat); dose-response comparison between 16-8 and GSK205 in response to 5 nM GSK101. Inset: Astrocytes responding to activation with GSK101; right-hand image taken at 5 sec after GSK101 application (mean ± SEM, n = 5 independent expts, n ≥ 200 cells/expt; *p < 0.05, t-test).
Primary porcine chondrocytes derived from femoral condyles of skeletally mature pigs were cultured and subjected to Ca^++ imaging as described previously.

[4] = test system: caerulein-evoked acute pancreatitis; assay: Caerulein-induced acute pancreatitis mouse model; assay type: in vivo; settings: 10 mg/kg i.p., 30 min before caerulein
Description: C57BL/6J male mice 8–10 weeks of age were subjected to acute pancreatitis by intraperitoneal injections of supramaximal doses of caerulein (50 μg/kg) every hour for a total of 6 h, as previously described in[61]. Control animals received 25% DMSO-saline solution by intraperitoneal injection every hour for 6 h. Compound 16-8 was dissolved in this vehicle (10 mg/kg) and injected i.p. 30 min prior to the first injection of caerulein. Animals were sacrificed 1 h after the last injection. Blood was collected and pancreatic tissue was promptly isolated, weighed for determination of pancreas wet weight/body weight ratio. Samples of tissues were fixed overnight in 10% neutral-buffered formalin, paraffin embedded and H&E-stained, or pancreatic tissue was quickly frozen and assessed for myeloperoxidase (MPO) activity. Serum amylase, MPO and histologic evaluation were conducted as described previously. Assessment of nocifensive behavior[8]: Mice were housed in individual cages and video-recorded during the entire experiment. Two mice at a time were observed. Linear movement was measured as one event when mice passed through the median plane of the cage. Analysis began immediately after the first caerulein/vehicle injection and continued until the end of the experiment. Results were expressed as the sum of the movement events spanning the 6 h time-period following the first injection.

TRPV4 [5] = biological target: T1, TRPV4; assay: Ca++ imaging in primary astrocytes, GSK101 stimulation; assay type: cell-based; settings: GSK101 5 nM
Description: as §1
Astrocyte cultures were conducted following established protocols. Astrocytes were prepared from Sprague Dawley rat embryos (E18). Briefly, the isolated cortices were minced, and then incubated with trypsin and DNase. Dissociated cells were suspended in Dulbeccco’s Modified Eagle’s Medium (DMEM) supplemented with 10% fetal calf serum and penicillin/streptomycin (100 U/ml and 100 μg/ml, respectively). Thereafter, cell suspensions were plated in 75 cm^2 tissue culture flasks (10 × 10^6 cells/flask) which were pre-coated with poly-L-lysine (10 μg/ml). The cells were maintained in a 10%CO2 incubator at 37 °C.

| Structure (SMILES) | inhibition of TRPV4-mediated Ca++ influx (TRPV4 [1]) | average peak ∆Ca++ concentration (TRPV4 [1]) [nM] | increased potency over GSK205 (TRPV4 [1]) | inhibition of TRPV3 (TRPV3) | stability in plasma [2] | IC50 (TRPV4 [1]) [nM] | potency vs GSK205, dose-response of peak ∆Ca++ (TRPV4 [3]) | histopathological score for pancreas inflammation [4] | myelo-peroxidase (MPO) [4] | pain behavior (nocifensive behavior, 6 h test period) [4] | pancreatic edema [4] | potency vs GSK205, dose-response of peak ∆Ca++ (TRPV4 [5]) |
| --- | --- | --- | --- | --- | --- | --- | --- | --- | --- | --- | --- | --- |
| CCN(CCc1ccc(Nc2nc(-c3ccccc3)cs2)cc1)Cc1ccccc1 [16-19] | virtually eliminated Ca^++ influx | 8 | ~8 fold | did not inhibit | stable; also recorded: no loss of detectable compound |  |  |  |  |  |  |  |
| CN(CCc1ccc(Nc2nc(-c3ccccc3)cs2)cc1)Cc1ccccc1 [16-8] | virtually eliminated Ca^++ influx | 6 | approximately 10 fold | did not inhibit |  | 450 ± 50 | significantly more potent than GSK205 | significantly reduced; also recorded: significant reduction | significantly reduced | virtually eliminated; also recorded: significantly reduced | virtually eliminated | significantly increased potency |
